{
  "source": "patent US12178878B2",
  "about": "“Amyloid peptide scaffolds coordinate with Alzheimer's disease drugs” (The University of Massachusetts, priority 2018, dated 2024)",
  "key": {"[1]": {"system": "[…] (SEQ ID NO: 4) amyloid peptide", "format": "binding", "details": "YFTGAIIGNFY 1 mg/mL, 150 μM inhibitor loaded, by MS", "method": "Amyloid Peptide/Inhibitor Coordination Studies in Dilute Solutions. […]. As a negative control, 1 mL of 0.1 M PBS buffer was added. The mixtures were vortexed and sonicated to homogenously disperse any solid aggregates and stirred overnight to allow for coordination. The mixtures were transferred to 2 mL Eppendorf tubes and centrifuged for 15 mins at 4,400 rpm (14° C.) to pelletize the amyloid bound-inhibitors, and the supernatant was decanted. Subsequently, 1 mL of DI water was added to wash the pellet (followed by vortexing until obtaining a homogenous dispersion) in order to remove any unbound inhibitor. The samples were then centrifuged again at the same conditions so as to pelletize the amyloid materials, and the supernatant was decanted. Another 1 mL of DI water was then added into the pellet, the mixture was vortexed, and the physically bound inhibitor into the dilute amyloid peptide dispersions was quantified by UV-Vis between 200-600 nm and MS. This step is denoted as wash 1 in our study. Two additional pellet purification cycles were realized with replacement of the decanted volume each time with 1 mL of fresh DI water (denoted as wash 2 and wash 3 respectively). The inhibitor-containing peptides amyloids were normalized at 400 nm over the respective no inhibitor-containing amyloid peptides at the specific washing step, and the measured inhibitor peak values (at 315 nm and 323 nm) were subtracted from that of the amyloid peptide carriers at the same wavelength and concentration. The amount of inhibitors coordinated with the amyloid peptide carriers was quantified based on a calibration curve by both UV-Vis and MS.\n. The peak at 315 nm was selected for inhibitor quantification due the absence of peaks at that range for both peptides. […]. However, the peak at 315 nm was selected for inhibitor quantification, and the following equation was used for both peptides: A315=A315 ([…]/Donepezil)−A315 ([…])\n[…]. The peak at 323 nm was used for inhibitor quantification due the absence of peaks at that range for both peptides. […]."}, "AChE": {"target": "AChE (Homo sapiens, UniProt P22303)", "sequence (P22303 32-614)": "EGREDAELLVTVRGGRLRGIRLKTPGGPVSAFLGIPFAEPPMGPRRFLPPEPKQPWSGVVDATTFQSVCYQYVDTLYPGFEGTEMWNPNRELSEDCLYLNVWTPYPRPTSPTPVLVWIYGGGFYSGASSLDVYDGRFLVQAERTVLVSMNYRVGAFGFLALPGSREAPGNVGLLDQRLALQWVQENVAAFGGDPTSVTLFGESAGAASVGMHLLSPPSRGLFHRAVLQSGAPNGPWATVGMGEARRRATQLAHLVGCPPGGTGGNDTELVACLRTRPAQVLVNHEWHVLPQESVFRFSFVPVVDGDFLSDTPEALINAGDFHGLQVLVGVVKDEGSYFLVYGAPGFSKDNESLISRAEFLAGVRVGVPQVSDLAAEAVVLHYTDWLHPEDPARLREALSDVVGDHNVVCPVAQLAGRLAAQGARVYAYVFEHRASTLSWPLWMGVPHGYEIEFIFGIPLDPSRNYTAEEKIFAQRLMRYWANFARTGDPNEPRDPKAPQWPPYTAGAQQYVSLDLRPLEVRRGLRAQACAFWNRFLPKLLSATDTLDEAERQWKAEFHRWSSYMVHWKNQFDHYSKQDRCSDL", "details": "in vitro, Ellman's assay, among marketed AD drugs; cited from earlier work"}, "[2]": {"system": "[…] (SEQ ID NO: 3) amyloid peptide", "experiment": "Coordination at higher peptide concentration (amyloid gel, 5 mg/mL), inhibitor capturing", "format": "binding", "details": "FYTGAIIGNYF gel 5 mg/mL, 1000 μM inhibitor solution added, by MS", "method": "Amyloid Fibrils Preparation and Characterization. For the formation of fibrils, the amyloid peptides were dispersed in DI water at a 10 mg/ml, vortexed, heated at 60° C. for 30 sec, and sonicated for 15 mins (this cycle was repeated 10 times overall), and finally left overnight at room temperature to form a hydrogel. […] That was confirmed with Field Emission Scanning Electron Microscopy (FESEM) and Congo Red staining (CR).\nCoordination Studies at Higher Peptide Concentrations and Inhibitor Capturing. […] (SEQ ID NO: 4) or […] (SEQ ID NO: 3) amyloid peptide gels (10 mg/mL, 1 mL volume) and was left to physically complex under stirring overnight (the final peptide concentration was diluted to 5 mg/mL). A control using 1 mL of 0.1 M PBS (no inhibitor) was also prepared. The complexed amyloid/inhibitor materials were then transferred to 5 mL conical Eppendorf tubes, and centrifuged for 15 mins at 4,400 rpm (14° C.). The supernatant was decanted, and 2 mL of DI water were subsequently added to wash the pellet (followed by vortexing until obtaining a homogenous dispersion) in order to remove any unbound inhibitor. The samples were then centrifuged again at the same conditions so as to pelletize the amyloid materials, and the supernatant was decanted. Another 2 mL of DI water were then added into the pellet, the mixture was vortexed, and the physically bound inhibitor into the amyloid peptides was quantified by UV-Vis between 200-600 nm and MS. This step is denoted as wash 1 in our study. Two additional pellet purification cycles were realized with replacement of the decanted volume each time with 2 mL of fresh DI water (denoted as wash 2 and wash 3 respectively). The inhibitor-containing amyloid peptides were normalized at 400 nm over the respective no inhibitor-containing ones at the specific washing step."}, "[3]": {"system": "[…] (SEQ ID NO: 4) amyloid peptide", "format": "binding", "details": "YFTGAIIGNFY gel 5 mg/mL, 1000 μM inhibitor solution added, by MS", "method": "Amyloid Fibrils Preparation and Characterization. For the formation of fibrils, the amyloid peptides were dispersed in DI water at a 10 mg/ml, vortexed, heated at 60° C. for 30 sec, and sonicated for 15 mins (this cycle was repeated 10 times overall), and finally left overnight at room temperature to form a hydrogel.\nA control using 1 mL of 0.1 M PBS (no inhibitor) was also prepared. The complexed amyloid/inhibitor materials were then transferred to 5 mL conical Eppendorf tubes, and centrifuged for 15 mins at 4,400 rpm (14° C.). The supernatant was decanted, and 2 mL of DI water were subsequently added to wash the pellet (followed by vortexing until obtaining a homogenous dispersion) in order to remove any unbound inhibitor. The samples were then centrifuged again at the same conditions so as to pelletize the amyloid materials, and the supernatant was decanted. Another 2 mL of DI water were then added into the pellet, the mixture was vortexed, and the physically bound inhibitor into the amyloid peptides was quantified by UV-Vis between 200-600 nm and MS. This step is denoted as wash 1 in our study. Two additional pellet purification cycles were realized with replacement of the decanted volume each time with 2 mL of fresh DI water (denoted as wash 2 and wash 3 respectively). The inhibitor-containing amyloid peptides were normalized at 400 nm over the respective no inhibitor-containing ones at the specific washing step."}, "[4]": {"system": "[…] (SEQ ID NO: 3) amyloid peptide", "experiment": "Amyloid peptide/inhibitor coordination in dilute solution (1 mg/mL), drug captured after pellet washings", "format": "binding", "details": "FYTGAIIGNYF 1 mg/mL, 150 μM inhibitor loaded, by MS", "method": "Amyloid Peptide/Inhibitor Coordination Studies in Dilute Solutions. […] Subsequently, 1 mL of DI water was added to wash the pellet (followed by vortexing until obtaining a homogenous dispersion) in order to remove any unbound inhibitor. The samples were then centrifuged again at the same conditions so as to pelletize the amyloid materials, and the supernatant was decanted. Another 1 mL of DI water was then added into the pellet, the mixture was vortexed, and the physically bound inhibitor into the dilute amyloid peptide dispersions was quantified by UV-Vis between 200-600 nm and MS. This step is denoted as wash 1 in our study. Two additional pellet purification cycles were realized with replacement of the decanted volume each time with 1 mL of fresh DI water (denoted as wash 2 and wash 3 respectively). The inhibitor-containing peptides amyloids were normalized at 400 nm over the respective no inhibitor-containing amyloid peptides at the specific washing step, and the measured inhibitor peak values (at 315 nm and 323 nm) were subtracted from that of the amyloid peptide carriers at the same wavelength and concentration. The amount of inhibitors coordinated with the amyloid peptide carriers was quantified based on a calibration curve by both UV-Vis and MS.\nThe peak at 315 nm was selected for inhibitor quantification due the absence of peaks at that range for both peptides. […] However, the peak at 315 nm was selected for inhibitor quantification, and the following equation was used for both peptides: A315=A315 ([…]/Donepezil)−A315 ([…])\nThe peak at 323 nm was used for inhibitor quantification due the absence of peaks at that range for both peptides."}},
  "note": "Like-named read-outs stand apart in the source and are kept apart here.",
  "data": [
    {"smiles": "CC12CC3CC(C)(C1)CC(N)(C3)C2", "note": "[memantine]", "values": [
      {"measurement": "AD compound captured, Wash 1", "setting": "[1]; 1st pellet wash", "value": "8 ± 1", "unit": "µM"},
      {"measurement": "AD compound captured, Wash 2", "setting": "[1]; 2nd pellet wash", "value": "3 ± 1", "unit": "µM"},
      {"measurement": "AD compound captured, Wash 3", "setting": "[1]; 3rd pellet wash", "value": "2 ± 1", "unit": "µM"},
      {"measurement": "inhibition towards AChE", "setting": "AChE", "value": "negligible inhibition"},
      {"measurement": "AD compound captured, Wash 1", "setting": "[2]; 1st pellet wash", "value": "32 ± 2", "unit": "µM"},
      {"measurement": "AD compound captured, Wash 2", "setting": "[2]; 2nd pellet wash", "value": "16 ± 2", "unit": "µM"},
      {"measurement": "AD compound captured, Wash 3", "setting": "[2]; 3rd pellet wash", "value": "12 ± 3", "unit": "µM"},
      {"measurement": "AD compound captured, Wash 1", "setting": "[3]; 1st pellet wash", "value": "21 ± 1", "unit": "µM"},
      {"measurement": "AD compound captured, Wash 2", "setting": "[3]; 2nd pellet wash, room temperature", "value": "10 ± 1", "unit": "µM"},
      {"measurement": "AD compound captured, Wash 3", "setting": "[3]; 3rd pellet wash, room temperature", "value": "8 ± 1", "unit": "µM"},
      {"measurement": "AD compound captured, Wash 1", "setting": "[4]; 1st pellet wash", "value": "18 ± 3", "unit": "µM"},
      {"measurement": "AD compound captured, Wash 2", "setting": "[4]; 2nd pellet wash", "value": "5 ± 2", "unit": "µM"},
      {"measurement": "AD compound captured, Wash 3", "setting": "[4]; 3rd pellet wash", "value": "4 ± 2", "unit": "µM"}
    ]}
  ]
}
